Reference: PubChem BioAssay (NCI)
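Dose response: 5 concentrations. Exposure: 48 h. Format: 96-well plates. Endpoint: linear interpolation; highest concentration if not reached. GI50 marks 50% less growth. The concentration for full growth arrest is given as TGI.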

Legend:
Experiment in all cases: NCI anticancer screen, dose series, 48 h
EKVX NSCLC = tested on: EKVX NSCLC
HS 578T breast = tested on: HS 578T breast
K-562 leukemia = tested on: K-562 leukemia
NCI-H226 lung = tested on: NCI-H226 lung
OVCAR-5 ovarian = tested on: OVCAR-5 ovarian
SK-MEL-2 melanoma = tested on: SK-MEL-2 melanoma
UO-31 renal = tested on: UO-31 renal

In the case of `O=C1c2ccccc2C(=O)N1c1ccc(S(=O)(=O)Nc2ncccn2)cc1`, the GI50 (EKVX NSCLC) is reported as over 100 µM, the TGI (EKVX NSCLC) is reported as over 100 µM and the GI50 (HS 578T breast) is reported as over 100 µM. For the same compound, the TGI (HS 578T breast) was over 100 µM, the GI50 (K-562 leukemia) was over 100 µM and the TGI (K-562 leukemia) was over 100 µM. The GI50 (NCI-H226 lung) was over 100 µM, the TGI (NCI-H226 lung) was over 100 µM and the GI50 (OVCAR-5 ovarian) was over 100 µM. The TGI (OVCAR-5 ovarian) was over 100 µM, the GI50 (SK-MEL-2 melanoma) was over 100 µM and the TGI (SK-MEL-2 melanoma) was over 100 µM. It also gave a GI50 (UO-31 renal) of over 100 µM and a TGI (UO-31 renal) of over 100 µM.

Compound `O=C1/C(=C/c2ccccc2Cl)N=C(c2ccccc2)N1Cc1ccco1` has a GI50 (EKVX NSCLC) of 54 µM, a TGI (EKVX NSCLC) of over 100 µM and a GI50 (HS 578T breast) of 72.8 µM. It also gave a TGI (HS 578T breast) of over 100 µM, a GI50 (K-562 leukemia) of 24.2 µM and a TGI (K-562 leukemia) of over 100 µM. The GI50 (OVCAR-5 ovarian) was over 100 µM, the TGI (OVCAR-5 ovarian) was over 100 µM and the GI50 (SK-MEL-2 melanoma) was 28.1 µM. It also gave a TGI (SK-MEL-2 melanoma) of 55.1 µM, a GI50 (UO-31 renal) of 55.4 µM and a TGI (UO-31 renal) of over 100 µM.

`CCOC(=O)CC1(O)C=CC(=O)C=C1` was tested, and the GI50 (EKVX NSCLC) was 3.24 µg/mL, the TGI (EKVX NSCLC) was 6.16 µg/mL and the GI50 (HS 578T breast) was 2.13 µg/mL. The TGI (HS 578T breast) was 15.3 µg/mL, the GI50 (K-562 leukemia) was 1.37 µg/mL and the TGI (K-562 leukemia) was 10.8 µg/mL. For the same compound, the GI50 (NCI-H226 lung) was 4.79 µg/mL, the TGI (NCI-H226 lung) was 13 µg/mL and the GI50 (OVCAR-5 ovarian) was 3.18 µg/mL. The TGI (OVCAR-5 ovarian) was 5.42 µg/mL, the GI50 (SK-MEL-2 melanoma) was 2.33 µg/mL and the TGI (SK-MEL-2 melanoma) was 4.66 µg/mL. For the same compound, the GI50 (UO-31 renal) was 2.41 µg/mL and the TGI (UO-31 renal) was 4.44 µg/mL.

With `N#Cc1ccccc1C#C/C=C\C#Cc1ccc(OCCCNC(=O)c2cc3ccccc3[nH]2)cc1` the GI50 (EKVX NSCLC) was 17.1 µM, the TGI (EKVX NSCLC) was 96.6 µM and the GI50 (K-562 leukemia) was 3.2 µM. The TGI (K-562 leukemia) was 19 µM, the GI50 (NCI-H226 lung) was 13.8 µM and the TGI (NCI-H226 lung) was 31.9 µM. The GI50 (OVCAR-5 ovarian) was 21.3 µM, the TGI (OVCAR-5 ovarian) was 48.4 µM and the GI50 (SK-MEL-2 melanoma) was 20.5 µM. It also gave a TGI (SK-MEL-2 melanoma) of 44.6 µM, a GI50 (UO-31 renal) of 17 µM and a TGI (UO-31 renal) of 35.4 µM.

In the case of `COc1ccc2c(c1)CC[C@@H]1[C@@H]2CC[C@@]2(C)[C@H]1CC1(CCCCC1)[C@@H]2O`, the GI50 (EKVX NSCLC) is reported as 18.3 µM, the TGI (EKVX NSCLC) is reported as 35.5 µM and the GI50 (HS 578T breast) is reported as 3.59 µM. It also gave a TGI (HS 578T breast) of 10.9 µM, a GI50 (NCI-H226 lung) of 20.2 µM and a TGI (NCI-H226 lung) of 44.9 µM. The GI50 (OVCAR-5 ovarian) was 13.1 µM, the TGI (OVCAR-5 ovarian) was 28.3 µM and the GI50 (SK-MEL-2 melanoma) was 20.4 µM. The TGI (SK-MEL-2 melanoma) was 41.6 µM, the GI50 (UO-31 renal) was 16.8 µM and the TGI (UO-31 renal) was 47.2 µM.

In the case of `COc1cc(/C=C/C(C)=O)ccc1OP(=O)(O)O`, the TGI (EKVX NSCLC) is reported as over 100 µM, the TGI (HS 578T breast) is reported as over 100 µM and the TGI (NCI-H226 lung) is reported as over 100 µM. The TGI (OVCAR-5 ovarian) was over 100 µM, the TGI (SK-MEL-2 melanoma) was over 100 µM and the TGI (UO-31 renal) was over 100 µM.

Work on `COc1ccc2c(c1)c(C1(c3cn(C)c4ccc(OC)cc34)C(=O)Nc3ccc(F)cc31)cn2C` yielded a GI50 (EKVX NSCLC) of 3.05 µM, a TGI (EKVX NSCLC) of over 100 µM and a GI50 (HS 578T breast) of 9.01 µM. For the same compound, the TGI (HS 578T breast) was over 100 µM, the GI50 (K-562 leukemia) was 4.61 µM and the TGI (K-562 leukemia) was over 100 µM. It also gave a GI50 (NCI-H226 lung) of 11.9 µM, a TGI (NCI-H226 lung) of over 100 µM and a GI50 (OVCAR-5 ovarian) of 9.94 µM. It also gave a TGI (OVCAR-5 ovarian) of 84.8 µM, a GI50 (SK-MEL-2 melanoma) of 3.62 µM and a TGI (SK-MEL-2 melanoma) of 9.64 µM. For the same compound, the GI50 (UO-31 renal) was 2.27 µM and the TGI (UO-31 renal) was over 100 µM.

For `CCN(CC)CCOc1ccc(/C=C2\CC3C4CCC5=CC(=O)CC[C@]5(C)C4CC[C@]3(C)C2=O)cc1OC` (stereo partly drawn), the GI50 (EKVX NSCLC) was 4.88 µM, the TGI (EKVX NSCLC) was 19.5 µM and the GI50 (HS 578T breast) was 2.45 µM. The TGI (HS 578T breast) was 17.3 µM, the GI50 (K-562 leukemia) was 3.14 µM and the TGI (K-562 leukemia) was over 100 µM. The GI50 (NCI-H226 lung) was 2.03 µM, the TGI (NCI-H226 lung) was 6.51 µM and the GI50 (OVCAR-5 ovarian) was 3.6 µM. The TGI (OVCAR-5 ovarian) was 17.4 µM, the GI50 (SK-MEL-2 melanoma) was 9.01 µM and the TGI (SK-MEL-2 melanoma) was over 100 µM. For the same compound, the GI50 (UO-31 renal) was 0.701 µM and the TGI (UO-31 renal) was over 100 µM.
